Data as given in patent US20230398130A1, “METHODS AND COMPOSITIONS FOR DIFFERENTIATING STEM CELLS” (Massachusetts Institute of Technology, priority 2020, published 2023).

Tests used:
ISC-enriched organoids [1] = assay: Primary screen, 384-well 2.5-D organoid differentiation (ENR+CD, 6 days): carbachol-induced lysozyme secretion (LYZ.S); format: cell-based, murine; conditions: for Z.LYZ.S: standard z score; for Z.LYZ.S / SSMD.LYZ.S / Dose.FC.LYZ.S: primary screen; for SSMD.LYZ.S: strictly standardized mean difference; for Dose.FC.LYZ.S: ENR+CD 6 days, FC vs plate median
Source text: (§1) High-throughput screening.

ISC-enriched organoids [2] = assay: Primary screen, 384-well 2.5-D organoid differentiation (ENR+CD, 6 days, Target Selective Inhibitor Library, vs whole-plate median): ATP (CellTiter-Glo 3D, CTG); conditions: for SSMD.CTG: strictly standardized mean difference; for Dose.FC.CTG: ENR+CD 6 days, FC vs plate median
ISC-enriched organoids [3] = assay: Primary screen, 384-well 2.5-D organoid differentiation (ENR+CD, 6 days): basal lysozyme secretion (LYZ.NS); format: cell-based, murine; conditions: for SSMD.LYZ.NS: strictly standardized mean difference; for SSMD.LYZ.NS / Dose.FC.LYZ.NS / Z.LYZ.NS: primary screen; for Dose.FC.LYZ.NS: ENR+CD 6 days, FC vs plate median; for Z.LYZ.NS: standard z score of FC
Source text: as §1

[4] = 1st of the 4 dose lines of the treatment (dose not given)
[5] = 2nd of the 4 dose lines of the treatment (dose not given)
[6] = 3rd of the 4 dose lines of the treatment (dose not given)
[7] = 4th of the 4 dose lines of the treatment (dose not given)
[8] = primary screen, 1st of the 4 dose lines of the treatment (dose not given)
[9] = primary screen, 2nd of the 4 dose lines of the treatment (dose not given)
[10] = primary screen, 3rd of the 4 dose lines of the treatment (dose not given)
[11] = primary screen, 4th of the 4 dose lines of the treatment (dose not given)
[12] = dose 0.08 uM (1st of 4 lines per treatment; dose not printed in this part)
[13] = dose 0.40 uM (2nd of 4 lines per treatment; dose not printed in this part)
[14] = dose 2.00 uM (3rd of 4 lines per treatment; dose not printed in this part)
[15] = dose 10.00 uM (4th of 4 lines per treatment; dose not printed in this part)

With `CCOC(=O)N1CCC(=C2c3ccc(Cl)cc3CCc3cccnc32)CC1` [Loratadine] the Z.LYZ.S (ISC-enriched organoids [1]; [4]) was −0.490, the Z.LYZ.S (ISC-enriched organoids [1]; [5]) was 0.069 and the Z.LYZ.S (ISC-enriched organoids [1]; [6]) was −0.959. The Z.LYZ.S (ISC-enriched organoids [1]; [7]) was −0.956, the SSMD.LYZ.S (ISC-enriched organoids [1]; [4]) was −0.535 and the SSMD.LYZ.S (ISC-enriched organoids [1]; [5]) was 0.082. The SSMD.LYZ.S (ISC-enriched organoids [1]; [6]) was −0.811, the SSMD.LYZ.S (ISC-enriched organoids [1]; [7]) was −1.029 and the Z.CTG (ISC-enriched organoids [2]; Dose 0.08 uM, primary screen, standard z score) was −0.697. For the same compound, the Z.CTG (ISC-enriched organoids [2]; Dose 0.40 uM, primary screen, standard z score) was 0.347, the Z.CTG (ISC-enriched organoids [2]; Dose 2.00 uM, primary screen, standard z score) was −0.488 and the Z.CTG (ISC-enriched organoids [2]; Dose 10.00 uM, primary screen, standard z score) was −0.287. The SSMD.CTG (ISC-enriched organoids [2]; [8]) was −0.683, the SSMD.CTG (ISC-enriched organoids [2]; [9]) was 0.535 and the SSMD.CTG (ISC-enriched organoids [2]; [10]) was −0.609. The SSMD.CTG (ISC-enriched organoids [2]; [11]) was −0.360, the SSMD.LYZ.NS (ISC-enriched organoids [3]; [4]) was 0.098 and the SSMD.LYZ.NS (ISC-enriched organoids [3]; [5]) was −0.004. It also gave an SSMD.LYZ.NS (ISC-enriched organoids [3]; [6]) of −0.783 and an SSMD.LYZ.NS (ISC-enriched organoids [3]; [7]) of −0.977.
In the case of `C=C1C(=O)O[C@H]2[C@H]1CC/C(C)=C/CC[C@@]1(C)O[C@@H]21` [(−)-Parthenolide], the “SSMD.LYZ.S_Rep (strictly standardized mean difference)” value (ISC-enriched organoids [1]; [12]) is reported as 0.679, the “Z.LYZ.S (standard z score)” value (ISC-enriched organoids [1]; [12]) is reported as 0.799 and the “SSMD.LYZ.S_Rep (strictly standardized mean difference)” value (ISC-enriched organoids [1]; [13]) is reported as 0.763. For the same compound, the “Z.LYZ.S (standard z score)” value (ISC-enriched organoids [1]; [13]) was 1.067, the “SSMD.LYZ.S_Rep (strictly standardized mean difference)” value (ISC-enriched organoids [1]; [14]) was 0.506 and the “Z.LYZ.S (standard z score)” value (ISC-enriched organoids [1]; [14]) was 0.441. The “SSMD.LYZ.S_Rep (strictly standardized mean difference)” value (ISC-enriched organoids [1]; [15]) was 0.345, the “Z.LYZ.S (standard z score)” value (ISC-enriched organoids [1]; [15]) was 0.530 and the Dose.FC.LYZ.S (ISC-enriched organoids [1]; dose 0.08 uM) was 0.124 log 2 fold change. It also gave a Dose.FC.LYZ.S (ISC-enriched organoids [1]; dose 0.40 uM) of 0.165 log 2 fold change, a Dose.FC.LYZ.S (ISC-enriched organoids [1]; dose 2.00 uM) of 0.068 log 2 fold change and a Dose.FC.LYZ.S (ISC-enriched organoids [1]; dose 10.00 uM) of 0.082 log 2 fold change. For the same compound, the “SSMD.CTG_Rep (strictly standardized mean difference)” value (ISC-enriched organoids [2]; [12]) was 0.498, the “SSMD.CTG_Rep (strictly standardized mean difference)” value (ISC-enriched organoids [2]; [13]) was 0.736 and the “SSMD.CTG_Rep (strictly standardized mean difference)” value (ISC-enriched organoids [2]; [14]) was 0.482. The “SSMD.CTG_Rep (strictly standardized mean difference)” value (ISC-enriched organoids [2]; [15]) was 0.257, the Dose.FC.CTG (ISC-enriched organoids [2]; primary screen, dose 0.08 uM) was 0.135 log 2 fold change and the Z.CTG (ISC-enriched organoids [2]; primary screen, dose 0.08 uM, standard z score of FC) was 0.322. The Dose.FC.CTG (ISC-enriched organoids [2]; primary screen, dose 0.40 uM) was 0.228 log 2 fold change, the Z.CTG (ISC-enriched organoids [2]; primary screen, dose 0.40 uM, standard z score of FC) was 0.544 and the Dose.FC.CTG (ISC-enriched organoids [2]; primary screen, dose 2.00 uM) was 0.157 log 2 fold change. It also gave a Z.CTG (ISC-enriched organoids [2]; primary screen, dose 2.00 uM, standard z score of FC) of 0.376, a Dose.FC.CTG (ISC-enriched organoids [2]; primary screen, dose 10.00 uM) of 0.157 log 2 fold change and a Z.CTG (ISC-enriched organoids [2]; primary screen, dose 10.00 uM, standard z score of FC) of 0.374. For the same compound, the “SSMD.LYZ.NS_Rep (strictly standardized mean difference)” value (ISC-enriched organoids [3]; [12]) was 0.601, the “SSMD.LYZ.NS_Rep (strictly standardized mean difference)” value (ISC-enriched organoids [3]; [13]) was 0.480 and the “SSMD.LYZ.NS_Rep (strictly standardized mean difference)” value (ISC-enriched organoids [3]; [14]) was 0.920. The “SSMD.LYZ.NS_Rep (strictly standardized mean difference)” value (ISC-enriched organoids [3]; [15]) was 0.998, the Dose.FC.LYZ.NS (ISC-enriched organoids [3]; dose 0.08 uM) was 0.058 log 2 fold change and the Z.LYZ.NS (ISC-enriched organoids [3]; dose 0.08 uM) was 0.506. For the same compound, the Dose.FC.LYZ.NS (ISC-enriched organoids [3]; dose 0.40 uM) was 0.067 log 2 fold change, the Z.LYZ.NS (ISC-enriched organoids [3]; dose 0.40 uM) was 0.583 and the Dose.FC.LYZ.NS (ISC-enriched organoids [3]; dose 2.00 uM) was 0.089 log 2 fold change. For the same compound, the Z.LYZ.NS (ISC-enriched organoids [3]; dose 2.00 uM) was 0.776, the Dose.FC.LYZ.NS (ISC-enriched organoids [3]; dose 10.00 uM) was 0.133 log 2 fold change and the Z.LYZ.NS (ISC-enriched organoids [3]; dose 10.00 uM) was 1.159.
With `O=C(O)Cn1nnc(-c2cc(N3CCC(Oc4cc(F)ccc4Br)CC3)no2)n1` [MK-8245] the Z.LYZ.S (ISC-enriched organoids [1]; [4]) was 0.449, the Z.LYZ.S (ISC-enriched organoids [1]; [5]) was 1.194 and the Z.LYZ.S (ISC-enriched organoids [1]; [6]) was −0.399. The Z.LYZ.S (ISC-enriched organoids [1]; [7]) was −0.799, the SSMD.LYZ.S (ISC-enriched organoids [1]; [4]) was 0.442 and the SSMD.LYZ.S (ISC-enriched organoids [1]; [5]) was 0.527. The SSMD.LYZ.S (ISC-enriched organoids [1]; [6]) was −0.357, the SSMD.LYZ.S (ISC-enriched organoids [1]; [7]) was −0.752 and the Z.CTG (ISC-enriched organoids [2]; Dose 0.08 uM, standard z score of FC) was 0.374. It also gave a Z.CTG (ISC-enriched organoids [2]; Dose 0.40 uM, standard z score of FC) of −0.269, a Z.CTG (ISC-enriched organoids [2]; Dose 2.00 uM, standard z score of FC) of −0.051 and a Z.CTG (ISC-enriched organoids [2]; Dose 10.00 uM, standard z score of FC) of −0.629. For the same compound, the SSMD.CTG (ISC-enriched organoids [2]; [8]) was 0.453, the SSMD.CTG (ISC-enriched organoids [2]; [9]) was −0.219 and the SSMD.CTG (ISC-enriched organoids [2]; [10]) was −0.054. For the same compound, the SSMD.CTG (ISC-enriched organoids [2]; [11]) was −0.921, the SSMD.LYZ.NS (ISC-enriched organoids [3]; [4]) was 0.168 and the SSMD.LYZ.NS (ISC-enriched organoids [3]; [5]) was 0.200. It also gave an SSMD.LYZ.NS (ISC-enriched organoids [3]; [6]) of −0.322 and an SSMD.LYZ.NS (ISC-enriched organoids [3]; [7]) of −0.716.
